The values below are quoted from earlier work in article PMC7163368 (British Journal of Clinical Pharmacology, 2020).

The conditions of this data set: cited from earlier work.

SMILES strings stand for the structures.

As to `CC#CCn1c(N2CCC[C@@H](N)C2)nc2c1c(=O)n(Cc1nc(C)c3ccccc3n1)c(=O)n2C` [linagliptin], the “Terminal half‐life” value (currently available oral gliptines) is 105 h. For the molecule `N[C@@H](CC(=O)N1CCn2c(nnc2C(F)(F)F)C1)Cc1cc(F)c(F)cc1F` [sitagliptin], the “Plasma levels higher in female subjects” value (female vs male subjects) was “approximately 25%”. `N#C[C@@H]1C[C@@H]2C[C@@H]2N1C(=O)[C@@H](N)C12CC3CC(CC(O)(C3)C1)C2` [saxagliptin]: the Oral bioavailability is given as 67%. As to `N#C[C@@H]1CCCN1C(=O)CNC12CC3CC(CC(O)(C3)C1)C2` [vildagliptin], the Oral bioavailability is on record as 85%.
